Data set [1] has as its system rabbit carotid artery air-drying injury model. The note with it: after vascular injury; cited from earlier work.

As for `CC(=N)N1CC[C@H](Oc2ccc([C@H](Cc3ccc4ccc(C(=N)N)cc4c3)C(=O)O)cc2)C1` [DX-9065a], the neointimal proliferation entry in data set [1] was “less neointimal proliferation”.
For `CCN(CC)CCCCNc1nccc(-c2ccc(C(=O)NCCc3ccc4[nH]cc(C(=N)N)c4c3)cc2)n1` [Example 1aaap, N-[2-(3-Carbamimidoyl-1H-indol-5-yl)ethyl]-4-[2-(4-diethylaminobutylamino)pyrimidin-4-yl]benzamide], the melting point was 73 to 76 °C.
Regarding `N=C(N)c1c[nH]c2ccc(CCNC(=O)c3ccc(-c4ccnc(NCCCCCCN5CCOCC5)n4)cc3)cc12` [Example 1aaaq, N-[2-(3-Carbamimidoyl-1H-indol-5-yl)ethyl]-4-[2-(6-morpholin-4-ylhexylamino)pyrimidin-4-yl]benzamide], the melting point fell in the range of 129 to 130 °C.
Compound `N=C(N)c1c[nH]c2ccc(CCNC(=O)c3ccc(-n4cccc4)nc3)cc12` [Example 1ab, N-(2-[3-Carbamimidoylindol-5-yl]ethyl)-6-pyrrol-1-ylnicotinamide] showed a melting point of 213 to 214 °C.
Still for that read-out and setting: the value for `N=C(N)c1c[nH]c2ccc(CCNC(=O)c3ccc(-n4cccn4)nc3)cc12` [Example 1ac, N-(2-[3-Carbamimidoylindol-5-yl]ethyl)-6-pyrazol-1-ylnicotinamide] was 235 to 236 °C.
Still for that read-out and setting: the value for `COc1ccc(-c2ccc(C(=O)NCCc3ccc4c(c3)c(C(=N)N)cn4C)cc2)cn1` [Example 1ad, N-(2-[3-Carbamimidoyl-1-methylindol-5-yl]ethyl)-4-(6-methoxypyrid-3-yl)benzamide] was 237 to 238 °C; that for `CN(C)CCn1cc(-c2ccc(C(=O)NCCc3ccc4[nH]cc(C(=N)N)c4c3)cc2)ccc1=O` [Example 1ap, N-(2-[3-Carbamimidoylindol-5-yl]ethyl)-4-(1-[2-dimethylaminoethyl]-6-oxo-1,6-dihydropyridin-3-yl)benzamide] was 94 to 97 °C; that for `N=C(N)c1c[nH]c2ccc(CCNC(=O)c3ccc(-c4ccc(=O)n(CC(N)=O)c4)cc3)cc12` [Example 1aq, N-(2-[3-Carbamimidoylindol-5-yl]ethyl)-4-(1-carbamoylmethyl-6-oxo-1,6-dihydropyridin-3-yl)benzamide] was 244 to 245 °C.
Still for that read-out and setting: then `N=C(N)c1c[nH]c2ccc(CCNC(=O)c3ccc(-c4ccccn4)s3)cc12` [Example 1c, 5-(Pyrid-2-yl)-thiophene-2-carboxylic acid 2-(3-carbamimidoyl-5-indolyl)ethyl amide], with 198 to 200 °C; and `N=C(N)c1c[nH]c2ccc(CCNC(=O)c3ccc(-n4ccnc4)cc3)cc12` [Example 1g, N-(2-[3-Carbamimidoylindol-5-yl]ethyl)-4-imidazol-1-ylbenzamide], with 191 to 194 °C; and `N=C(N)c1c[nH]c2ccc(CCNC(=O)c3ccc(-c4cnc[nH]4)cc3)cc12` [Example 1h, N-(2-[3-Carbamimidoylindol-5-yl]ethyl)-4-(3H-imidazol-4-yl)benzamide], with 52 to 54 °C.
As to `N=C(N)c1c[nH]c2ccc(CCNC(=O)c3ccc(-c4ncns4)cc3)cc12` [Example 1i, N-(2-[3-Carbamimidoylindol-5-yl]ethyl)-4-(1,2,4)thiadiazol-5-ylbenzamide], the melting point lay in the range of 222 to 224 °C.
Same read-out and setting: the value for `COc1ccc(-c2ccc(C(=O)NCCc3ccc4[nH]cc(C(=N)N)c4c3)cc2)cn1` [Example 1p, N-(2-[3-Carbamimidoylindol-5-yl]ethyl)-4-(6-methoxypyrid-3-yl)benzamide] was 164 to 167 °C; that for `N=C(N)c1c[nH]c2ccc(CCNC(=O)c3ccc(-c4ccc(=O)[nH]c4)cc3)cc12` [Example 1v, N-(2-[3-carbamimidoyl-1H-indol-5-yl]ethyl)-4-(6-oxo-1,6-dihydro-pyrid-3-yl)benzamide] was 152 to 156 °C.
Same read-out and setting: the value for `N=C(N)c1c[nH]c2ccc(CCNC(=O)c3ccc(NCCO)nc3)cc12` [Example 1z, N-(2-[3-Carbamimidoylindol-5-yl]ethyl)-6-(2-hydroxyethylamino)nicotinamide] was 102 to 105 °C.

Values taken from patent US6541505B1, “Substituted (aminoiminomethyl or aminomethyl) benzoheteroaryl compounds” (Aventis Pharmaceuticals Inc., priority 1998, dated 2003).
